Patent US20230373930A1, “AMINOIMIDAZOLE FPR2 AGONISTS” (BRISTOL-MYERS SQUIBB COMPANY, priority 2020, published 2023)
pEC50: −log10 of the molar value.

Assays:
[1] = target: T1, human FPR1 (Homo sapiens, UniProt P21462); assay: FPR1 cyclic adenosine monophosphate (cAMP) assay; assay type: cell-based; settings: CHO cells overexpressing human FPR1; forskolin 10 μM; inhibition of cAMP production; HTRF; read-out: hFPR1 cAMP2 EC50
T1 sequence (P21462 1-350): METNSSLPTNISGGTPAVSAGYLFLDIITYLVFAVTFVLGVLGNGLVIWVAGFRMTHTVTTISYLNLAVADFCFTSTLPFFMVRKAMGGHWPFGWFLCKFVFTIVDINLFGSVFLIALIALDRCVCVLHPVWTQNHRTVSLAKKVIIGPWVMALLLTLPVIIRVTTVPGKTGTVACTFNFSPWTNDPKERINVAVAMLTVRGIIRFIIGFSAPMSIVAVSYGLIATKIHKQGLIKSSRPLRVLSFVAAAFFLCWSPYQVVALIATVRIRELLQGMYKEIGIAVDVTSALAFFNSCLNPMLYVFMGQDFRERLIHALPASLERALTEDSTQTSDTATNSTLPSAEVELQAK
Summary of the method: (§1)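 CHO cells overexpressing human FPR1 (4,000/well, 10 μM forskolin) or FPR2 (2,000/well, 5 μM forskolin) were incubated with 200 μM IBMX and compound (0.020 nM–100 μM, 1% DMSO) for 30 min at room temperature. Intracellular cAMP was measured by HTRF against a cAMP standard curve, and inhibition of cAMP production was fitted to a 4-parameter logistic.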

[2] = target: T2, human FPR2 (Homo sapiens, UniProt P25090); assay: FPR2 cyclic adenosine monophosphate (cAMP) assay; assay type: cell-based; settings: CHO cells overexpressing human FPR2; forskolin 5 μM; inhibition of cAMP production; HTRF; read-out: hFPR2 cAMP2 EC50
T2 sequence (P25090 1-351): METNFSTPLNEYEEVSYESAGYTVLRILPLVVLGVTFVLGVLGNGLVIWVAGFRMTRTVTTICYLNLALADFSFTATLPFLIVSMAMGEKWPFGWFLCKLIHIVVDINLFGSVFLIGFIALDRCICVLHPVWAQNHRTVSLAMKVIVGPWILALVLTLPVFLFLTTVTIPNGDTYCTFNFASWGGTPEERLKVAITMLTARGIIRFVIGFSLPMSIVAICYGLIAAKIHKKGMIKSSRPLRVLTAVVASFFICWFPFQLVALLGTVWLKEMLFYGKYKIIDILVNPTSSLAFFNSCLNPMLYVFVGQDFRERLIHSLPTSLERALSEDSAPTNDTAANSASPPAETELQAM
Summary of the method: as §1

SMILES | pEC50 [1] | pEC50 [2]
COc1cc(F)c(-n2cc(Cc3ccccc3)nc2NC(=O)c2ccc(OC(F)F)cc2)c(F)c1 [Example 71, N-[4-benzyl-1-(2,6-difluoro-4-methoxyphenyl)-1H-imidazol-2-yl]-4-(difluoromethoxy)benzamide] | 5.89 | 7.34
CCOC(=O)Cc1cn(-c2c(F)cc(OC)cc2F)c(NC(=O)c2ccc(OC(F)F)cc2)n1 [Example 72, ethyl 2-[1-(2,6-difluoro-4-methoxyphenyl)-2-[4-(difluoromethoxy)benzamido]-1H-imidazol-4-yl]acetate] | 6.33 | 7.66
COc1cc(F)c(-n2cc(Cc3nnc(C)o3)nc2NC(=O)c2ccc(OC(F)F)cc2)c(F)c1 [Example 73, N-(1-(2,6-Difluoro-4-methoxyphenyl)-4-((5-methyl-1,3,4-oxadiazol-2-yl)methyl)-1H-imidazol-2-yl)-4-(difluoromethoxy)benzamide] | 6.52 | 7.64
COc1cc(F)c(-n2cc(C3CC(O)C3)nc2NC(=O)c2ccc(OC(F)F)cc2)c(F)c1 (centres unmarked) [Example 74, N-(1-(2,6-Difluoro-4-methoxyphenyl)-4-(3-hydroxycyclobutyl)-1H-imidazol-2-yl)-4-(difluoromethoxy)benzamide] | 6.60 | 8.15
COc1cc(F)c(-n2cc(C3CC4(CNC4)C3)nc2NC(=O)c2ccc(OC(F)F)cc2)c(F)c1 [Example 75, N-(1-(2,6-Difluoro-4-methoxyphenyl)-4-(2-azaspiro[3.3]heptan-6-yl)-1H-imidazol-2-yl)-4-(difluoromethoxy)benzamide] | < 5.00 | 7.64
COc1cc(F)c(-n2cc(C3CCC(O)CC3)nc2NC(=O)c2ccc(OC(F)F)cc2)c(F)c1 (centres unmarked) [Example 76, N-(1-(2,6-Difluoro-4-methoxyphenyl)-4-(4-hydroxycyclohexyl)-1H-imidazol-2-yl)-4-(difluoromethoxy)benzamide] | 6.62 | 8.00
COc1cc(F)c(-n2cc(Cc3nc4ncc(F)cc4[nH]3)nc2NC(=O)c2ccc(OC(F)F)cc2)c(F)c1 [Example 77, N-(1-(2,6-Difluoro-4-methoxyphenyl)-4-((6-fluoro-1H-imidazo[4,5-b]pyridin-2-yl)methyl)-1H-imidazol-2-yl)-4-(difluoromethoxy)benzamide] | 6.92 | 7.89
COc1cc(F)c(-n2cc(Cc3ccccn3)nc2NC(=O)c2ccc(OC(F)F)cc2)c(F)c1 [Example 78, N-[1-(2,6-difluoro-4-methoxyphenyl)-4-[(pyridin-2-yl)methyl]-1H-imidazol-2-yl]-4-(difluoromethoxy)benzamide] | 6.06 | 7.25
COc1cc(F)c(-n2cc(C3CNC3)nc2NC(=O)c2ccc(OC(F)F)cc2)c(F)c1 [Example 79, N-[4-(azetidin-3-yl)-1-(2,6-difluoro-4-methoxyphenyl)-1H-imidazol-2-yl]-4-(difluoromethoxy)benzamide] | 5.38 | 7.09
COc1cc(F)c(-n2cc(-c3ccn[nH]3)nc2NC(=O)c2ccc(OC(F)F)cc2)c(F)c1 [Example 80, N-[1-(2,6-difluoro-4-methoxyphenyl)-4-(1H-pyrazol-5-yl)-1H-imidazol-2-yl]-4-(difluoromethoxy)benzamide] | 6.30 | 7.23
COc1cc(F)c(-n2cc(C3CC(N)C3)nc2NC(=O)c2ccc(OC(F)F)cc2)c(F)c1 (centres unmarked) [Example 81, N-[4-(3-aminocyclobutyl)-1-(2,6-difluoro-4-methoxyphenyl)-1H-imidazol-2-yl]-4-(difluoromethoxy)benzamide] | 5.27 | 8.40
COc1cc(F)c(-n2cc(C3CC(NCC(F)(F)F)C3)nc2NC(=O)c2ccc(OC(F)F)cc2)c(F)c1 (centres unmarked) [Example 82, N-(1-(2,6-Difluoro-4-methoxyphenyl)-4-(3-((2,2,2-trifluoroethyl)amino)cyclobutyl)-1H-imidazol-2-yl)-4-(difluoromethoxy)benzamide] | 7.07 | 8.00
COc1cc(F)c(-n2cc(C3CC(NS(C)(=O)=O)C3)nc2NC(=O)c2ccc(OC(F)F)cc2)c(F)c1 (centres unmarked) [Example 83, N-[1-(2,6-difluoro-4-methoxyphenyl)-4-(3-methanesulfonamidocyclobutyl)-1H-imidazol-2-yl]-4-(difluoromethoxy)benzamide] | 6.40 | 8.30
